Laboratory results from patent publication US6872689B1, “Water-dispersible agrochemical compositions” (Agform, Ltd., priority 1999, dated 2005).

Type: physicochemical
Procedure: 200 mls water was poured into a jacketed glass vessel and allowed to reach 25 C. A Grant recirculator was used to maintain the temperature at 25 C+/−1 C. A magnetic stirrer at a set speed was used to stir the water. The specified weight of granules was then added to the water and allowed to disperse for 30 seconds before a timer was started. A 2 mls sample was removed using a syringe after 5 minutes and filtered using a 0.45 micron syringe filter. The solution was then analysed to determine the active concentration using a HPLC method.

SMILES: COc1nc(C)nc(NC(=O)NS(=O)(=O)c2ccccc2Cl)n1 [Airmilled technical, Chlorsulfuron]
- solubility in distilled water (in words): not readily soluble
- % active added to water that dissolved after 5 minutes (chlorsulfuron, dilution rate 91 mgs a.i./L, distilled water, 25 C): <2%
